Data set [1] concerns glioma cells co-cultured with BMDMs. The experiment in a line: Glioma cell / BMDM co-culture cell cycle analysis. The following applies: 670 nM BLZ945, 48 hours. It is filed as cell-based, mouse. The protocol: (§1) Media that had been conditioned by glioma tumor cell lines grown in serum free media for 24 hours was passed through 0.22 μm filters to remove cellular debris, and is referred to herein as glioma cell-conditioned media (GCM). GCM was used to stimulate differentiated C57BL/6 WT or β-actin-GFP^+ BMDMs. Control macrophages received fresh media containing 10% FBS and 10 ng/ml recombinant mouse CSF-1.
Following collection of trypsinized co-cultured cells, wells were rinsed in additional media and this volume was collected to ensure harvesting of all macrophages, which adhered tightly to cell culture dishes. Samples were then washed once with FACS buffer, followed by incubation for 10 minutes at room temperature in permeabilizing buffer (10 mM PIPES, 0.1 M NaCl, 2 mM MgCl2, 0.1% Triton X-100, pH 6.8) containing 0.1 mg DAPI (Invitrogen). After acquisition on an LSR II flow cytometer (BD) using a UV laser (350-360 nm), cell cycle status of glioma tumor cells was analyzed using the Flow Jo Dean-Jett-Fox program for cell cycle analysis.

The next data set deals with CD11b+Gr-1− TAMs. The experiment in a line: Gene expression profiling of TAMs (microarray). The class given is in vivo, mouse.
Data set [2] deals with PDGF-driven gliomas (PDG). Description: Long-term survival trial in PDG mice. It is filed as in vivo.
For data set [3], the system named is secondary neurospheres from PDG tumors. Description: Secondary neurosphere formation assay. Particulars: concentrations up to 6700 nM. The class given is cell-based, mouse. The protocol: For neurosphere formation the cell pellet was resuspended in neurosphere media consisting of mouse NSC Basal Media, NSC proliferation supplements, 10 ng/ml EGF, 20 ng/ml basic-FGF and 1 mg/ml Heparin (Stem Cell Technologies). Fresh media was added every 72 hours for 2 weeks. Primary neurospheres were collected, mechanically disaggregated to a single cell suspension and propagated by serial passaging. To generate glioma cell lines, secondary neurospheres were dissociated to single cell suspensions and cultivated in DMEM+10% FBS as a monolayer (10). Multiple glioma cell lines were derived from independent mice, denoted GBM1-4 herein. Glioma cells were infected with a pBabe-H2B-mCherry construct as described previously (11).
Primary neurospheres were disaggregated to a single cell suspension and 5×10^3 cells were plated in a 6 well plate in neurosphere media in the presence of the CSF-1R inhibitor or DMSO as vehicle. Media was changed every 48 hours. Secondary neurosphere formation was assayed by counting the number of neurospheres obtained after 2 weeks.

A further data set relates to Mrc1/CD206. Description: Mrc1/CD206 expression in BMDMs (flow cytometry, qRT-PCR). It is filed as cell-based, mouse. Particulars: in vitro, GCM. The protocol: as §1
For mouse primary glioma cultures (containing a mixed population of tumor cells, TAMs, astrocytes etc.; see FIG. 15), 1×10^6 cells were cultivated in DMEM+10% FBS in the presence of the CSF-1R inhibitor or DMSO as vehicle (n=6 independently isolated cultures). For BMDMs, 1×10^6 cells were cultivated in DMEM supplemented with recombinant mouse CSF-1 or GCM in the presence of the CSF-1R inhibitor or DMSO as vehicle. After 48 hours, cells were scraped and washed with FACS buffer. Cells were counted and incubated with 1 μl of Fc Block (BD Pharmingen) per 10^6 cells for at least 15 minutes at 4° C. Cells were then stained with CD45 and CD11b antibodies (Table 7) for 10 minutes at 4° C. and washed with FACS buffer. Cells were fixed and permeabilized using the BD Cytofix/Cytoperm™ kit (BD Biosciences) according to the manufacturer's instructions. Subsequently cells were stained with anti-CD206 antibody (Table 7). […]

The next data set relates to Mrc1. The experiment in a line: Mrc1 expression in primary glioma cultures (flow cytometry). It is filed as cell-based, mouse. Particulars: CD45+CD11b+ cells. The protocol: Macrodissected tumors were digested to a single cell suspension by incubation for 8-12 minutes at 37° C. as described above. The cell suspension was washed with Neural Stem Cell (NSC) Basal Media (Stem Cell Technologies), and centrifuged at low speed (750 rpm Sorvall Legend RT), to remove debris. To derive mouse primary glioma cultures, the cell pellet was resuspended in DMEM containing 10% FBS (Gibco). These primary cultures were used at early passage (P2-P3), and contain a mixture of different cell types found in gliomas including tumor cells, macrophages, and astrocytes as determined by immunofluorescence staining. Primary glioma cultures were grown for 24 hours on poly-L-lysine coated coverslips (BD Biocoat). Cells were then fixed with 4% PFA in 0.1M phosphate buffer overnight at 4° C., permeabilized with 0.1% Triton-X for 5 minutes and blocked with 0.5% PNB for at least one hour. […]
For mouse primary glioma cultures (containing a mixed population of tumor cells, TAMs, astrocytes etc.; see FIG. 15), 1×10^6 cells were cultivated in DMEM+10% FBS in the presence of the CSF-1R inhibitor or DMSO as vehicle (n=6 independently isolated cultures). […] Cells were counted and incubated with 1 μl of Fc Block (BD Pharmingen) per 10^6 cells for at least 15 minutes at 4° C. […]
For orientation: In flow cytometry, cells or beads pass a laser one at a time.

A further data set deals with U-87 MG glioma cell line. Description: MTT assay, U-87 MG. Particulars: concentrations up to 6700 nM. The class given is cell-based, human. The protocol: U-87 MG (HTB-14) glioma and CRL-2467 microglia cell lines were purchased from ATCC. The U-87 MG cell line was cultured in DMEM+10% FBS. The CRL-2467 cell line was cultured in DMEM+10% FBS with 30 ng/ml recombinant mouse CSF-1.
Cell growth rate was determined using the MTT cell proliferation kit (Roche). […] Media was changed every 48 hours. BMDM and CRL-2467 cells were supplemented with 10 ng/ml and 30 ng/ml recombinant mouse CSF-1 respectively unless otherwise indicated. Ten μl of MTT labeling reagent was added to each well and then incubated for 4 hours at 37° C., followed by the addition of 100 μl MTT solubilization reagent overnight. The mixture was gently resuspended and absorbance was measured at 595 nm and 750 nm on a SPECTRAMAX 340 pc plate reader (Molecular Devices).
(Formazan colour is commonly taken as a measure of viable cells.)

For another data set, the target named is >200 kinases. Description: biochemical kinase panel. The following applies: read-out: biochemical IC50 values for >200 kinases tested; except cKIT and PDGFRβ; data not shown.

For orientation: IC50 means the point on the concentration scale where inhibition reaches its midpoint.

SMILES strings stand for the structures. Entries after “also recorded” stand apart in the source; their conditions may differ.

Consider `CNC(=O)c1cc(Oc2ccc3nc(N[C@@H]4CCCC[C@H]4O)sc3c2)ccn1` [BLZ945], for which the “increase in tumor cell cycle entry with GCM-preconditioned BMDMs” value in data set [1] is “blocked”. Also, in the data set with CD11b+Gr-1− TAMs (7 days treatment), the “targets of Egr2 (GSEA)” value is reported as “downregulated”. For the same compound, in the data set with CD11b+Gr-1− TAMs (BLZ945 versus vehicle, 7 days treatment), the “upregulated differentially expressed genes” value is 52 genes. Moreover, in the data set with CD11b+Gr-1− TAMs (with the exception of IL-1 beta), the “classically activated/M1 macrophage markers” value was “not differentially expressed”. Also, the tolerability entry in data set [2] (200 mg/kg once daily, up to 26 weeks) is given as “well-tolerated”. Besides, in data set [2] (26-week endpoint), the “asymptomatic mice with no detectable lesions at end stage” value is given as 55.6%. Further, the “cohort still alive at trial endpoint (symptom-free survival)” value in data set [2] (26 weeks post-injection, 200 mg/kg once daily from 2.5 weeks) is 64.3%. Moreover, in data set [2] (versus vehicle, long-term survival trial), the tumor grade result is reported as “significantly less malignant tumors”. In addition, the “tumor neurosphere formation (number or size of secondary neurospheres)” value in data set [3] is on record as “no effect; also recorded: does not affect the number or size”. In addition, the “expression of Mrc1/CD206 in BMDMs” value with Mrc1/CD206 is on record as “downregulates”. The “Mrc1 in primary glioma cultures containing TAMs” value in the data set on Mrc1 is on record as “decreased”. Besides, the “U-87 MG human glioma cell proliferation” value in the data set on U-87 MG glioma cell line is recorded as “no effect”. The IC50 on >200 kinases is over 10 µM.

The record behind these values is US20150119267A1, “INHIBITION OF COLONY STIMULATING FACTOR-1 RECEPTOR SIGNALING FOR THE TREATMENT OF BRAIN CANCER” (SLOAN-KETTERING INSTITUTE FOR CANCER RESEARCH, priority 2012, published 2015).
